Here are results for 1 compound from patent US5112806A, “Antibiotic, mersacidin, a process for the preparation thereof and the use thereof as a pharmaceutical” (Hoechst Aktiengesellschaft, priority 1988, dated 1992).

Where only a bound is given, the exact number is not on record here.

The subject of series [1] is Streptococcus faecalis 21777. In words: MIC, growth inhibition in vitro. The class given is cell-based. To be noted: Table 5.
For a further series, the system named is S. haemolyticus 712. The series is described as follows: MIC, growth inhibition in vitro. The class given is cell-based. To be noted: Table 5.
The next series relates to S. aureus E 710 (MRSA). The series is described as follows: In vivo activity against S. aureus E 710 (MRSA) in mice. To be noted: S. aureus E 710 (Methicillin resistant), 1 × 10^10 CFU/mouse. Here is the method: On subcutaneous administration in a dose of 9.37 and 25.00 mg/kg to laboratory mice infected experimentally with Staphylococcus aureus SG 511 and S. aureus 710 (resistant to methicillin), […]. […]

The test system of the next series is S. epidermidis 823. In words: MIC, growth inhibition in vitro. The class given is cell-based. The settings on record: Table 5.
Another series relates to S. haemolyticus 809. The series is described as follows: MIC, growth inhibition in vitro. To be noted: Table 5. The class given is cell-based.
The next series can be described thus: physchem. To be noted: water. Here is the method: These salts can be prepared by the treatment of mersacidin with 1.0 equivalent of the corresponding alkali metal hydroxide in the presence of pyridine. For example, mersacidin (50 mg) was dissolved in 1 ml of pyridine, the solution cooled to 0° C. and a solution of 1.683 mg of KOH in 3 ml of distilled water was added under stirring.

In the next series the test system is S. epidermidis 32965. In words: MIC, growth inhibition in vitro. The class given is cell-based. To be noted: Table 5.
In another series the test system is S. aureus 25923. The series is described as follows: MIC, growth inhibition in vitro. The class given is cell-based. To be noted: Table 5.
Series [2] relates to Streptococcus hominis ML 22. In words: MIC, growth inhibition in vitro. The class given is cell-based. To be noted: Table 5.
Series [3] deals with Streptococcus pyogenes A 77. In words: In vivo activity against Streptococcus pyogenes A 77 infection in mice. The settings on record: Streptococcus pyogenes A 77, 3,8 × 10^3 CFU/mouse. The text has this: (§1) In vivo activity of potassium mersacidin against S. aureus
(§2) and Streptococcus pyogenes A 77 infection in mice

The test system of series [4] is Staphylococcus aureus 209P. The series is described as follows: MIC, growth inhibition in vitro. The class given is cell-based. To be noted: Table 5. The text has this: (§3) The biological properties of mersacidin as the MIC values required for inhibition of the growth of various microorganisms are listed in Table 3.
The next series deals with S. aureus 710. In words: MIC, growth inhibition in vitro. The class given is cell-based. To be noted: Table 5.
Text: as §3

The next series deals with S. aureus 3066. The series is described as follows: MIC, growth inhibition in vitro. The class given is cell-based. The settings on record: Table 5.
Text: as §3

The subject of another series is S. aureus R 85. In words: MIC, growth inhibition in vitro. The class given is cell-based. The settings on record: Table 5.
Text: as §3

For the next series, the system named is S. aureus SG 511. The series is described as follows: In vivo activity against S. aureus SG 511 infection in mice. The settings on record: S. aureus SG 511 (Methicillin sensitive), 1,75 × 10^9 CFU/mouse. Here is the method:
On subcutaneous administration in a dose of 9.37 and 25.00 mg/kg to laboratory mice infected experimentally with Staphylococcus aureus SG 511 and S. aureus 710 (resistant to methicillin), […].
In vivo activity of mersacidin against S. aureus SG 511
infection in mice compared with vancomycin.
Inoculation medium used: 1.75 × 10^9 CFU/mouse

In series [5] the test system is Streptococcus faecalis 29212. In words: MIC, growth inhibition in vitro. The class given is cell-based. To be noted: Table 5.
For another series, the system named is S. aureus C 31153. In words: In vivo activity against S. aureus C 31153 infection in mice. The settings on record: S. aureus C 31153 (Methicillin & Caphalexin resistant), 2 × 10^9 CFU/mouse.
Text: as §1, §2

What is called solubility is the dissolved amount per volume that the medium holds. A lower solubility goes with little dissolved substance. As to `C=C1NC(=O)[C@@H]2NC(=O)[C@H](CC(C)C)NC(=O)[C@H](NC(=O)[C@@H]3CS[C@@H](C)[C@@H](NC(=O)[C@H](Cc4ccccc4)NC(=O)[C@@H]4NC(=O)[C@@H](N)CS[C@H]4C)C(=O)N[C@@H](CC(C)C)C(=O)N4CCC[C@H]4C(=O)NCC(=O)NCC(=O)NCC(=O)NCC(=O)N[C@@H](C(C)C)C(=O)N3)[C@H](C)SC[C@H](NC(=O)[C@H](CCC(=O)O)NC1=O)C(=O)N[C@@H]([C@@H](C)CC)C(=O)N/C=C\S[C@H]2C` [potassium mersacidin], the MIC values was determined as 15 mg/L in [1]; 10 mg/L in the series on S. haemolyticus 712; 50 mg/L against S. epidermidis 823; 4 mg/L against S. haemolyticus 809; 6 mg/L against S. epidermidis 32965; 8 mg/L against S. aureus 25923. The MIC values in series [2] came out at 10 mg/L; in [4], 2 mg/L; in the series with S. aureus 710, 1 mg/L; against S. aureus 3066, 10 mg/L; against S. aureus R 85 it was 2 mg/L; in series [5], 15 mg/L. The “50% Effective Dose (ED50)” value was 6,72 mg/kg × 3, s.c with S. aureus E 710 (MRSA); 0,46 mg/kg × 3, s.c in series [3]; 2,85 mg/kg × 3, s.c in the series on S. aureus SG 511; 15,35 mg/kg × 3, s.c in the series on S. aureus C 31153. Further, the solubility in “physchem” is at least 160 mg/mL.
